Results on two compounds are retold here after patent US20060100235A1, “Pharmaceutical use of substituted 1,2,4-triazoles” (Novo Nordisk A/S, priority 2003, published 2006).

Molecules are shown by their SMILES.

For this assay, the target named is T1, h-11βHSD1 (Homo sapiens, UniProt P28845).
T1 construct: made in house
Briefly: 11βHSD1 enzyme assay (scintillation proximity assay). It counts as biochemical. To be noted: extract of yeast transformed with h-11βHSD1; 120 nM 3H-cortisone, 4 mM β-NADPH; 60 min at 30° C. How it is done: Pharmacological Methods 11βHSD1 enzyme assay Materials
^3H-cortisone and anti-rabbit Ig coated scintillation proximity assay (SPA) beads were purchased from Amersham Pharmacia Biotech, β-NADPH was from Sigma and rabbit anticortisol antibodies were from Fitzgerald. An extract of yeast transformed with h-11βHSD1 (Hult et al., FEBS Lett, 441, 25 (1998)) was used as the source of enzyme. The test compounds were dissolved in DMSO (10 mM). All dilutions were performed in a buffer containing 50 mM TRIS-HCl (Sigma Chemical Co), 4 mM EDTA (Sigma Chemical Co), 0.1% BSA (Sigma Chemical Co), 0.01% Tween-20 (Sigma Chemical Co) and 0.005% bacitracin (Novo Nordisk A/S), pH=7.4. Optiplate 96 wells plates were supplied by Packard. The amount of ^3H-cortisol bound to the SPA beads was measured on TopCount NXT, Packard.
h-11βHSD1, 120 nM ^3H-cortisone, 4 mM β-NADPH, antibody (1:200), serial dilutions of test compound and SPA particles (2 mg/well) were added to the wells. The reaction was initiated by mixing the different components and was allowed to proceed under shaking for 60 min at 30° C. […] Data was analysed using GraphPad Prism software.

T1 sequence (P28845 whole entry): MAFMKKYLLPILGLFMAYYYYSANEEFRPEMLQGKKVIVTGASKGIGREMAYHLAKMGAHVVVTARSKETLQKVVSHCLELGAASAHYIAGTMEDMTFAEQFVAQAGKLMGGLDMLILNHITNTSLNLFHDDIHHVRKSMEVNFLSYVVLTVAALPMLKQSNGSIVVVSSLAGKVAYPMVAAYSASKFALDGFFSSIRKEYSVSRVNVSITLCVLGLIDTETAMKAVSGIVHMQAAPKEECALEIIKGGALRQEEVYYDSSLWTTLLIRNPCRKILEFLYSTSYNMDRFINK

With `CCn1c(SCC(=O)N2CCCc3ccccc32)nnc1-c1ccccc1Br` [Comp A, 2-[5-(2-Bromo-phenyl)-4-ethyl-4H-[1,2,4]triazol-3-ylsulfanyl]-1-(3,4-dihydro-2H-quinolin-1-yl)-ethanone], the IC50 was 0.16 µM. As for `Cn1c(SCC(=O)c2ccccc2)nnc1C1CCCCC1` [Comp B, 2-(5-Cyclohexyl-4-methyl-4H-[1,2,4]triazol-3-ylsulfanyl)-1-phenyl-ethanone], the figure is 0.19 µM.
